US9340600B2 (Indiana University Research and Technology Corporation, priority 2012, dated 2016)
pEC50: −log10 of the molar value. *1 amine or outer side, *2 acyl side, *3 side chain or, on linkers, in order; H or OH if unused. Where a SMILES comes first, the peptide text is derived from it. Side-chain parts run from the residue outwards. [ ]: non-standard residue; d: D form. The star is where a group is joined. γGlu = O=C(O)[C@H](CCC(=O)[*:2])N[*:1]; Palmitoyl = CCCCCCCCCCCCCCCC(=O)*; hSer = N[C@@H](CCO)C(=O)O; Aib = CC(C)(N)C(=O)O

Experiments:
Format in all cases: cell-based
glucagon receptor = molecular target: T1, glucagon receptor (Homo sapiens, UniProt P47871); test: cAMP induction, firefly luciferase-based reporter assay in HEK293 cells co-transfected with glucagon receptor; conditions: for pEC50: EC50 at Glucagon Receptor
T1 construct: expressed in transfected cells; host or cells: HEK293
From the text: (§1) This example describes an exemplary method of testing the biological activity of the peptides of the present disclosures, which method involves assaying cAMP synthesis.

GIP receptor = molecular target: T2, GIP receptor (Homo sapiens, UniProt P48546); test: cAMP induction, firefly luciferase-based reporter assay in HEK293 cells co-transfected with GIP receptor; conditions: EC50 at GIP Receptor
T2 construct: expressed in transfected cells; host or cells: HEK293
T2 sequence (P48546 22-466): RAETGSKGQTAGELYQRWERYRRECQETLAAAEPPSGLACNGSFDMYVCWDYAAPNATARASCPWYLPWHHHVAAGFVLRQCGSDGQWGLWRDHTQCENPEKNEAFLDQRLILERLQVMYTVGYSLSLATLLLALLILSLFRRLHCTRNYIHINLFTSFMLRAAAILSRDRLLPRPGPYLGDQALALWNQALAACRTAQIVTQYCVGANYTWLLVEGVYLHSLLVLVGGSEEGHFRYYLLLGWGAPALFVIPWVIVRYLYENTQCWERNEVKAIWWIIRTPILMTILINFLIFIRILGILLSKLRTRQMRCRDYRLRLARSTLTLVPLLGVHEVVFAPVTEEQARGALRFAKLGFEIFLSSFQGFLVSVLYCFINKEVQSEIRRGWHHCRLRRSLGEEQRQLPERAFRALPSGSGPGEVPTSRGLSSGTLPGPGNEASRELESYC
From the text: as §1

GLP-1 receptor = molecular target: T3, GLP-1 receptor (Homo sapiens, UniProt P43220); test: cAMP induction, firefly luciferase-based reporter assay in HEK293 cells co-transfected with GLP-1 receptor; conditions: EC50 at GLP-1 Receptor
T3 construct: expressed in transfected cells; host or cells: HEK293
From the text: as §1

[1] = Table 2, analogs of SEQ ID NO: 18 varying at positions 16-21
[2] = Table 3, analogs of SEQ ID NO: 18 varying at position 3

T1 sequence (P47871 26-477): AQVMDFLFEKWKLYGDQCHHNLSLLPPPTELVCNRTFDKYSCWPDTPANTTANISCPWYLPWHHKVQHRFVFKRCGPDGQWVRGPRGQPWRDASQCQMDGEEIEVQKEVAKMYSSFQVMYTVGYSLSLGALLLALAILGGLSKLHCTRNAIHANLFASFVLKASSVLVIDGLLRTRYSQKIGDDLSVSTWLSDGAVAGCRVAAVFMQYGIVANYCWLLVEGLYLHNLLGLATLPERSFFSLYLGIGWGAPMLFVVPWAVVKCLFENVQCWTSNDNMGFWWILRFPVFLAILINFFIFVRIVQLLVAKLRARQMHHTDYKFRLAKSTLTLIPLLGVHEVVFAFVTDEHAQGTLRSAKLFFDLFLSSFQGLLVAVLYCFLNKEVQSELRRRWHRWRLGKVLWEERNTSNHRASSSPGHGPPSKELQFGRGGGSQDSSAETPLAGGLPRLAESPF
T3 sequence (P43220 24-463): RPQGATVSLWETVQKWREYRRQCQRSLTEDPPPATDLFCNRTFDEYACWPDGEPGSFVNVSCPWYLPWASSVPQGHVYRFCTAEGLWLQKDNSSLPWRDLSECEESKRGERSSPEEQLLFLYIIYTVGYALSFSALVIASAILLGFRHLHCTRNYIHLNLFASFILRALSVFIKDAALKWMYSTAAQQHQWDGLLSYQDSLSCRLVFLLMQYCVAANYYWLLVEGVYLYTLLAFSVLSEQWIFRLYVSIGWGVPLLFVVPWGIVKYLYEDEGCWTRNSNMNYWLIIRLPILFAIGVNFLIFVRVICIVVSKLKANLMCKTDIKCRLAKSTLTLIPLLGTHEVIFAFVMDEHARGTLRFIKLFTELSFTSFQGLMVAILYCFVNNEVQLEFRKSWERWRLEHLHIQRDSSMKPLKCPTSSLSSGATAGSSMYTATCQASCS

CCCCCCCCCCCCCCCC(=O)N[C@@H](CCC(=O)NCCCC[C@H](NC(=O)[C@H](CC(=O)O)NC(=O)[C@H](CO)NC(=O)[C@@H](NC(=O)[C@H](Cc1ccccc1)NC(=O)[C@@H](NC(=O)CNC(=O)[C@H](CCC(N)=O)NC(=O)C(C)(C)NC(=O)[C@@H](N)Cc1c[nH]cn1)[C@@H](C)O)[C@@H](C)O)C(=O)N[C@@H](CO)C(=O)N[C@@H](CCCCN)C(=O)N[C@@H](Cc1ccc(O)cc1)C(=O)N[C@@H](CC(C)C)C(=O)N[C@@H](CC(=O)O)C(=O)N[C@@H](CCCCN)C(=O)N[C@@H](Cc1c[nH]cn1)C(=O)N[C@@H](C)C(=O)N[C@@H](C)C(=O)NC(C)(C)C(=O)N[C@@H](CCC(=O)O)C(=O)N[C@@H](Cc1ccccc1)C(=O)N[C@H](C(=O)N[C@@H](CCC(N)=O)C(=O)N[C@@H](Cc1c[nH]c2ccccc12)C(=O)N[C@@H](CC(C)C)C(=O)N[C@@H](CC(C)C)C(=O)N[C@@H](CC(=O)O)C(=O)NCC(=O)NCC(=O)N1CCC[C@H]1C(=O)N[C@@H](CO)C(=O)N[C@@H](CO)C(=O)NCC(=O)N[C@@H](C)C(=O)N1CCC[C@H]1C(=O)N1CCC[C@H]1C(=O)N1CCC[C@H]1C(=O)N[C@@H](CO)C(N)=O)C(C)C)C(=O)O [compound 28] (H-H[Aib]QGTFTSDK([γGlu-Palmitoyl])SKYLDKHAA[Aib]EFVQWLLDGGPSSGAPPPS-NH2; N-terminus assumed)
pEC50 (glucagon receptor; [1]): 11.22
pEC50 (GIP receptor; [1]): 12.00
pEC50 (GLP-1 receptor; [1]): 11.70

CCCCCCCCCCCCCCCC(=O)N[C@@H](CCC(=O)NCCCC[C@H](NC(=O)[C@H](CC(=O)O)NC(=O)[C@H](CO)NC(=O)[C@@H](NC(=O)[C@H](Cc1ccccc1)NC(=O)[C@@H](NC(=O)CNC(=O)[C@H](CCC(=O)O)NC(=O)C(C)(C)NC(=O)[C@@H](N)Cc1c[nH]cn1)[C@@H](C)O)[C@@H](C)O)C(=O)N[C@@H](CO)C(=O)N[C@@H](CCCCN)C(=O)N[C@@H](Cc1ccc(O)cc1)C(=O)N[C@@H](CC(C)C)C(=O)N[C@@H](CCC(=O)O)C(=O)N[C@@H](CCC(=O)O)C(=O)N[C@@H](CCCNC(=N)N)C(=O)N[C@@H](C)C(=O)N[C@@H](C)C(=O)N[C@@H](CCC(N)=O)C(=O)N[C@@H](CCC(=O)O)C(=O)N[C@@H](Cc1ccccc1)C(=O)N[C@H](C(=O)N[C@@H](CCC(N)=O)C(=O)N[C@@H](Cc1c[nH]c2ccccc12)C(=O)N[C@@H](CC(C)C)C(=O)N[C@@H](CC(C)C)C(=O)N[C@@H](CCC(=O)O)C(=O)NCC(=O)NCC(=O)N1CCC[C@H]1C(=O)N[C@@H](CO)C(=O)N[C@@H](CO)C(=O)NCC(=O)N[C@@H](C)C(=O)N1CCC[C@H]1C(=O)N1CCC[C@H]1C(=O)N1CCC[C@H]1C(=O)N[C@@H](CO)C(N)=O)C(C)C)C(=O)O [compound 29] (H-H[Aib]EGTFTSDK([γGlu-Palmitoyl])SKYLEERAAQEFVQWLLEGGPSSGAPPPS-NH2; N-terminus assumed)
pEC50 (glucagon receptor; [2]): 8.82
pEC50 (GIP receptor; [2]): 10.77
pEC50 (GLP-1 receptor; [2]): 11.10

CCCCCCCCCCCCCCCC(=O)N[C@@H](CCC(=O)NCCCC[C@H](NC(=O)[C@H](CC(=O)O)NC(=O)[C@H](CO)NC(=O)[C@@H](NC(=O)[C@H](Cc1ccccc1)NC(=O)[C@@H](NC(=O)CNC(=O)[C@@H](NC(=O)C(C)(C)NC(=O)[C@@H](N)Cc1c[nH]cn1)[C@@H](C)CC)[C@@H](C)O)[C@@H](C)O)C(=O)N[C@@H](CO)C(=O)N[C@@H](CCCCN)C(=O)N[C@@H](Cc1ccc(O)cc1)C(=O)N[C@@H](CC(C)C)C(=O)N[C@@H](CCC(=O)O)C(=O)N[C@@H](CCC(=O)O)C(=O)N[C@@H](CCCNC(=N)N)C(=O)N[C@@H](C)C(=O)N[C@@H](C)C(=O)N[C@@H](CCC(N)=O)C(=O)N[C@@H](CCC(=O)O)C(=O)N[C@@H](Cc1ccccc1)C(=O)N[C@H](C(=O)N[C@@H](CCC(N)=O)C(=O)N[C@@H](Cc1c[nH]c2ccccc12)C(=O)N[C@@H](CC(C)C)C(=O)N[C@@H](CC(C)C)C(=O)N[C@@H](CCC(=O)O)C(=O)NCC(=O)NCC(=O)N1CCC[C@H]1C(=O)N[C@@H](CO)C(=O)N[C@@H](CO)C(=O)NCC(=O)N[C@@H](C)C(=O)N1CCC[C@H]1C(=O)N1CCC[C@H]1C(=O)N1CCC[C@H]1C(=O)N[C@@H](CO)C(N)=O)C(C)C)C(=O)O [compound 30] (H-H[Aib]IGTFTSDK([γGlu-Palmitoyl])SKYLEERAAQEFVQWLLEGGPSSGAPPPS-NH2)
EC50 at Glucagon Receptor (glucagon receptor; [2]): Not active
pEC50 (GIP receptor; [2]): 9.37
pEC50 (GLP-1 receptor; [2]): 9.60

CCCCCCCCCCCCCCCC(=O)N[C@@H](CCC(=O)NCCCC[C@H](NC(=O)[C@H](CC(=O)O)NC(=O)[C@H](CO)NC(=O)[C@@H](NC(=O)[C@H](Cc1ccccc1)NC(=O)[C@@H](NC(=O)CNC(=O)[C@H](CCSC)NC(=O)C(C)(C)NC(=O)[C@@H](N)Cc1c[nH]cn1)[C@@H](C)O)[C@@H](C)O)C(=O)N[C@@H](CO)C(=O)N[C@@H](CCCCN)C(=O)N[C@@H](Cc1ccc(O)cc1)C(=O)N[C@@H](CC(C)C)C(=O)N[C@@H](CCC(=O)O)C(=O)N[C@@H](CCC(=O)O)C(=O)N[C@@H](CCCNC(=N)N)C(=O)N[C@@H](C)C(=O)N[C@@H](C)C(=O)N[C@@H](CCC(N)=O)C(=O)N[C@@H](CCC(=O)O)C(=O)N[C@@H](Cc1ccccc1)C(=O)N[C@H](C(=O)N[C@@H](CCC(N)=O)C(=O)N[C@@H](Cc1c[nH]c2ccccc12)C(=O)N[C@@H](CC(C)C)C(=O)N[C@@H](CC(C)C)C(=O)N[C@@H](CCC(=O)O)C(=O)NCC(=O)NCC(=O)N1CCC[C@H]1C(=O)N[C@@H](CO)C(=O)N[C@@H](CO)C(=O)NCC(=O)N[C@@H](C)C(=O)N1CCC[C@H]1C(=O)N1CCC[C@H]1C(=O)N1CCC[C@H]1C(=O)N[C@@H](CO)C(N)=O)C(C)C)C(=O)O [compound 31] (H-H[Aib]MGTFTSDK([γGlu-Palmitoyl])SKYLEERAAQEFVQWLLEGGPSSGAPPPS-NH2; N-terminus assumed)
pEC50 (glucagon receptor; [2]): 10.52
pEC50 (GIP receptor; [2]): 11.30
pEC50 (GLP-1 receptor; [2]): 11.70

CCCCCCCCCCCCCCCC(=O)N[C@@H](CCC(=O)NCCCC[C@H](NC(=O)[C@H](CC(=O)O)NC(=O)[C@H](CO)NC(=O)[C@@H](NC(=O)[C@H](Cc1ccccc1)NC(=O)[C@@H](NC(=O)CNC(=O)[C@H](CC(C)C)NC(=O)C(C)(C)NC(=O)[C@@H](N)Cc1c[nH]cn1)[C@@H](C)O)[C@@H](C)O)C(=O)N[C@@H](CO)C(=O)N[C@@H](CCCCN)C(=O)N[C@@H](Cc1ccc(O)cc1)C(=O)N[C@@H](CC(C)C)C(=O)N[C@@H](CCC(=O)O)C(=O)N[C@@H](CCC(=O)O)C(=O)N[C@@H](CCCNC(=N)N)C(=O)N[C@@H](C)C(=O)N[C@@H](C)C(=O)N[C@@H](CCC(N)=O)C(=O)N[C@@H](CCC(=O)O)C(=O)N[C@@H](Cc1ccccc1)C(=O)N[C@H](C(=O)N[C@@H](CCC(N)=O)C(=O)N[C@@H](Cc1c[nH]c2ccccc12)C(=O)N[C@@H](CC(C)C)C(=O)N[C@@H](CC(C)C)C(=O)N[C@@H](CCC(=O)O)C(=O)NCC(=O)NCC(=O)N1CCC[C@H]1C(=O)N[C@@H](CO)C(=O)N[C@@H](CO)C(=O)NCC(=O)N[C@@H](C)C(=O)N1CCC[C@H]1C(=O)N1CCC[C@H]1C(=O)N1CCC[C@H]1C(=O)N[C@@H](CO)C(N)=O)C(C)C)C(=O)O [compound 32] (H-H[Aib]LGTFTSDK([γGlu-Palmitoyl])SKYLEERAAQEFVQWLLEGGPSSGAPPPS-NH2)
EC50 at Glucagon Receptor (glucagon receptor; [2]): Not active
pEC50 (GIP receptor; [2]): 9.14
pEC50 (GLP-1 receptor; [2]): 9.41

CCCCCCCCCCCCCCCC(=O)N[C@@H](CCC(=O)NCCCC[C@H](NC(=O)[C@H](CC(=O)O)NC(=O)[C@H](CO)NC(=O)[C@@H](NC(=O)[C@H](Cc1ccccc1)NC(=O)[C@@H](NC(=O)CNC(=O)[C@H](CCO)NC(=O)C(C)(C)NC(=O)[C@@H](N)Cc1c[nH]cn1)[C@@H](C)O)[C@@H](C)O)C(=O)N[C@@H](CO)C(=O)N[C@@H](CCCCN)C(=O)N[C@@H](Cc1ccc(O)cc1)C(=O)N[C@@H](CC(C)C)C(=O)N[C@@H](CCC(=O)O)C(=O)N[C@@H](CCC(=O)O)C(=O)N[C@@H](CCCNC(=N)N)C(=O)N[C@@H](C)C(=O)N[C@@H](C)C(=O)N[C@@H](CCC(N)=O)C(=O)N[C@@H](CCC(=O)O)C(=O)N[C@@H](Cc1ccccc1)C(=O)N[C@H](C(=O)N[C@@H](CCC(N)=O)C(=O)N[C@@H](Cc1c[nH]c2ccccc12)C(=O)N[C@@H](CC(C)C)C(=O)N[C@@H](CC(C)C)C(=O)N[C@@H](CCC(=O)O)C(=O)NCC(=O)NCC(=O)N1CCC[C@H]1C(=O)N[C@@H](CO)C(=O)N[C@@H](CO)C(=O)NCC(=O)N[C@@H](C)C(=O)N1CCC[C@H]1C(=O)N1CCC[C@H]1C(=O)N1CCC[C@H]1C(=O)N[C@@H](CO)C(N)=O)C(C)C)C(=O)O [compound 33] (H-H[Aib][hSer]GTFTSDK([γGlu-Palmitoyl])SKYLEERAAQEFVQWLLEGGPSSGAPPPS-NH2)
pEC50 (glucagon receptor; [2]): 10.82
pEC50 (GIP receptor; [2]): 11.40
pEC50 (GLP-1 receptor; [2]): 11.70
